Reference: patent publication US11332479B2, “Imidazooxazole derivative having antitumor effect, and pharmaceutical composition including same” (KOREA INSTITUTE OF SCIENCE AND TECHNOLOGY, priority 2016, dated 2022)

What was measured:
C-RAF = C-RAF (Homo sapiens (Human), UniProt P04049); assay: Protein kinase enzymatic activity (Reaction Biology kinase hotspot), C-RAF; assay type: biochemical; settings: for Inhibitory effect against enzymatic activity of C-RAF, in words: compared with GW5074 and vemurafenib; for IC50: read-out: Inhibitory effect against kinase activity of C-RAF (IC50)
Protocol: (§1) Reaction biology kinase hotspot service (http://www.reactionbiology.com) was used to measure IC50. In a final reaction volume of 25 μL, kinase (5 mU to 10 mU) was incubated with 25 mM Tris (pH 7.5), 0.02 mM EGTA, 0.66 mg/ml of myelin basic protein, 10 mM magnesium acetate, and [^33P-ATP] (specific activity of about 500 CPM/pmol, concentration as required). The reaction was initiated by addition of Mg-ATP mix. After incubation for 40 min at room temperature, the reaction was stopped by addition of 5 μl of a 3% phosphoric acid solution. 10 μL of the reaction was then spotted onto a P30 filtermat and washed three times for 5 minutes in 75 mM phosphoric acid and once in methanol prior to drying and scintillation counting.

V600E-B-RAF = V600E-B-RAF (Homo sapiens (Human), UniProt P15056, V600E); assay: Protein kinase enzymatic activity (Reaction Biology kinase hotspot), V600E-B-RAF; assay type: biochemical; settings: for Inhibitory effect against enzymatic activity of V600E-RAF, in words: compared with GW5074 and vemurafenib; for IC50: read-out: Inhibitory effect against kinase activity of V600E-B-RAF (IC50)
Protocol: as §1

B-RAF = B-RAF (Homo sapiens (Human), UniProt P15056); assay: Protein kinase enzymatic activity (Reaction Biology kinase hotspot), B-RAF; assay type: biochemical; settings: for Inhibitory effect against enzymatic activity of B-RAF, in words: compared with GW5074 and vemurafenib; for IC50: read-out: Inhibitory effect against kinase activity of B-RAF (IC50)
Protocol: as §1

[1] = tested on: A375P cell line xenograft; assay: Tumor-inhibitory effects in melanoma xenograft mouse model; assay type: in vivo, nude mice
Protocol: In this experiment, A375P cell line which is a human-derived malignant melanoma cell line was subcutaneously administered to nude mice to prepare xenograft models, and the test material (compound 2II) was administered to the xenograft models to evaluate anti-cancer effects (G1: an excipient control group, G2: a group administered with 20 mg/kg/day of the test material, and G3: a group administered with 50 mg/kg/day of the test material).

Chain of C-RAF (P04049 whole entry): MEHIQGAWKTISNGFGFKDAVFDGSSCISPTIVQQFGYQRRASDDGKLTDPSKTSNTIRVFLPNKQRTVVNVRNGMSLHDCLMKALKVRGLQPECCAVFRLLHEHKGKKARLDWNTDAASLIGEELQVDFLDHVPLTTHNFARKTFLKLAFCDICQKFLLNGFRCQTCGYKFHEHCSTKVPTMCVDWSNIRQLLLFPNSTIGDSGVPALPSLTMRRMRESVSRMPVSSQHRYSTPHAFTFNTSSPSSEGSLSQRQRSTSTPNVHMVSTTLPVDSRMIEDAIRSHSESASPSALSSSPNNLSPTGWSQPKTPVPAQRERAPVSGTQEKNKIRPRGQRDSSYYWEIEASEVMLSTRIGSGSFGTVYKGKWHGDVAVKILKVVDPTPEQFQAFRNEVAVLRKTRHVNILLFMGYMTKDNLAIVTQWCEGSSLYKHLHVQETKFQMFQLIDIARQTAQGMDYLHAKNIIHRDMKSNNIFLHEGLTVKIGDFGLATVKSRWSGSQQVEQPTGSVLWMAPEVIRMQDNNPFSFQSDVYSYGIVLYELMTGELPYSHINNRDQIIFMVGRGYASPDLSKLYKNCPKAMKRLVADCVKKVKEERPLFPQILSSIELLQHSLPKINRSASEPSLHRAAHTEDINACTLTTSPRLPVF
Chain of V600E-B-RAF (P15056 whole entry V600E): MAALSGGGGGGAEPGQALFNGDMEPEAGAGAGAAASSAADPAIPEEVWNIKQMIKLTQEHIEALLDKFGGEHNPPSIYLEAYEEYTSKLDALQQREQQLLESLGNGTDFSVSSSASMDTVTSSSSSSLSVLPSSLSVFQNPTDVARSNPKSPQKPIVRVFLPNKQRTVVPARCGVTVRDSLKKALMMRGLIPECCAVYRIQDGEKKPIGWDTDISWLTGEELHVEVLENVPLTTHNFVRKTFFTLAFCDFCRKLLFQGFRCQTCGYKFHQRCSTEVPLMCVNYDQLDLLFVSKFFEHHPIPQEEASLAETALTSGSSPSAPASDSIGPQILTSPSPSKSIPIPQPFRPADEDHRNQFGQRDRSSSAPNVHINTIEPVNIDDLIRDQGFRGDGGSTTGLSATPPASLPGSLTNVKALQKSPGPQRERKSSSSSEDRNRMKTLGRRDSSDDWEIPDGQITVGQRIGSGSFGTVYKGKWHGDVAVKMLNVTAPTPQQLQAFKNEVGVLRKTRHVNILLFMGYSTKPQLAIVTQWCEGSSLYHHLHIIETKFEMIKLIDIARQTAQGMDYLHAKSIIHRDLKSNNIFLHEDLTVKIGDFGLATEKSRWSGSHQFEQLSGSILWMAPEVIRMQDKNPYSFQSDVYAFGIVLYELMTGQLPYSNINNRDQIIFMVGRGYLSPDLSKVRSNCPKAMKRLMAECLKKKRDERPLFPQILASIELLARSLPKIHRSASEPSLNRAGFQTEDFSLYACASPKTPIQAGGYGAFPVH
Chain of B-RAF (P15056 whole entry): as the sequence (P15056 whole entry V600E) above, with E600V counted along it

## O=S(=O)(NCCNc1nccc(-c2c(-c3cccc(O)c3)nc3sccn23)n1)c1ccc(F)cc1 [Compound 25III, 4-Fluoro-N-(2-((4-(6-(3-hydroxylphenyl)imidazo[2,1-b]thiazol-5-yl)pyrimidin-2-yl)amino)ethyl)benzenesulfonamide]
C-RAF
  Inhibitory effect against enzymatic activity of C-RAF, in words: excellent inhibitory effects
V600E-B-RAF
  Inhibitory effect against enzymatic activity of V600E-RAF, in words: excellent inhibitory effects
B-RAF
  Inhibitory effect against enzymatic activity of B-RAF, in words: excellent inhibitory effects

## COc1cc(-c2nc3sccn3c2-c2ccnc(NCCCNS(=O)(=O)c3ccc(F)cc3)n2)ccc1F [Compound 37III, 4-Fluoro-N-(3-((4-(6-(4-fluoro-3-methoxyphenyl)imidazo[2,1-b]thiazol-5-yl)pyrimidin-2-yl)amino)propyl)benzenesulfonamide]
C-RAF
  IC50: 13.8 nM
V600E-B-RAF
  IC50: 1.66 nM
B-RAF
  IC50: 8.8 nM

## O=S(=O)(NCCCNc1nccc(-c2c(-c3ccc(F)c(O)c3)nc3sccn23)n1)c1ccc(Cl)cc1 [Compound 48III, 4-chloro-N-(3-(4-(6-(4-fluoro-3-hydroxyphenyl)imidazo[2,1-b]thiazol-5-yl)pyrimidin-2-ylamino)propyl)benzenesulfonamide]
V600E-B-RAF
  IC50: 0.27 nM

## CCN1CCN(CCNc2nccc(-c3c(-c4cccc(O)c4)nc4occn34)n2)S1(=O)=O [Compound 2II, 2-Ethyl-5-(2-((4-(6-(3-hydroxylphenyl)imidazo[2,1-b]oxazol-5-yl)pyrimidin-2-yl)amino)ethyl)-1,2,5-thiadiazolidine 1,1-dioxide]
C-RAF
  Inhibitory effect against enzymatic activity of C-RAF, in words: excellent inhibitory effects
  IC50: 0.75 nM
V600E-B-RAF
  Inhibitory effect against enzymatic activity of V600E-RAF, in words: excellent inhibitory effects
[1]; 20 and 50 mg/kg/day, twice per week for 3 weeks
  General symptoms and deaths: no deaths or no abnormalities in general symptoms were observed
[1]; G1, G2, G3
  Tumor size, difference between all experimental groups: no significant difference
[1]; G3, 50 mg/kg/day, 14 days and 21 days after administration
  Body weight compared with control group (G1): significantly low
[1]; groups administered with 20 and 50 mg/kg/day
  Increase of the tumor size: inhibited in a dose-dependent manner
B-RAF
  Inhibitory effect against enzymatic activity of B-RAF, in words: excellent inhibitory effects

## O=S(=O)(NCCCNc1nccc(-c2c(-c3ccc(F)c(O)c3)nc3occn23)n1)c1ccc(Cl)cc1 [70 IV, 4-chloro-N-(3-(4-(6-(4-fluoro-3-hydroxyphenyl)imidazo[2,1-b]oxazol-5-yl)pyrimidin-2-ylamino)propyl)benzenesulfonamide]
V600E-B-RAF
  IC50: 0.15 nM

## COc1ccc(S(=O)(=O)NCCCNc2nccc(-c3c(-c4ccc(F)c(O)c4)nc4occn34)n2)cc1 [72 IV, N-(3-(4-(6-(4-fluoro-3-hydroxyphenyl)imidazo[2,1-b]oxazol-5-yl)pyrimidin-2-ylamino)propyl)-4-methoxybenzenesulfonamide]
V600E-B-RAF
  IC50: 0.08 nM

## O=S(=O)(NCCNc1nccc(-c2c(-c3ccc(F)c(O)c3)nc3sccn23)n1)c1ccccc1 [Compound 46III, N-(2-(4-(6-(4-fluoro-3-hydroxyphenyl)imidazo[2,1-b]thiazol-5-yl)pyrimidin-2-ylamino)ethyl)benzenesulfonamide]
V600E-B-RAF
  IC50: 0.15 nM

## O=S(=O)(NCCCNc1nccc(-c2c(-c3ccc(F)c(O)c3)nc3occn23)n1)c1ccccc1 [73 IV, N-(3-(4-(6-(4-fluoro-3-hydroxyphenyl)imidazo[2,1-b]oxazol-5-yl)pyrimidin-2-ylamino)propyl)benzenesulfonamide]
V600E-B-RAF
  IC50: 0.16 nM

## CCN1CCN(CCNc2nccc(-c3c(-c4ccc(F)c(O)c4)nc4sccn34)n2)S1(=O)=O [Compound 31II]
C-RAF
  IC50: 7.83 nM
V600E-B-RAF
  IC50: 0.98 nM
B-RAF
  IC50: 4.19 nM

## O=S(=O)(NCCNc1nccc(-c2c(-c3ccc(F)c(O)c3)nc3occn23)n1)c1ccc(F)cc1 [64 IV, 4-fluoro-N-(2-(4-(6-(4-fluoro-3-hydroxyphenyl)imidazo[2,1-b]oxazol-5-yl)pyrimidin-2-ylamino)ethyl)benzenesulfonamide]
V600E-B-RAF
  IC50: 0.36 nM

## CN1CCN(CCNc2nccc(-c3c(-c4cccc(O)c4)nc4occn34)n2)S1(=O)=O [Compound 1II, 2-(2-((4-(6-(3-Hydroxylphenyl)imidazo[2,1-b]oxazol-5-yl)pyrimidin-2-yl)amino)ethyl)-5-methyl-1,2,5-thiadiazolidine 1,1-dioxide]
C-RAF
  Inhibitory effect against enzymatic activity of C-RAF, in words: excellent inhibitory effects
  IC50: 2.95 nM
V600E-B-RAF
  Inhibitory effect against enzymatic activity of V600E-RAF, in words: excellent inhibitory effects
B-RAF
  Inhibitory effect against enzymatic activity of B-RAF, in words: excellent inhibitory effects

## COc1cc(-c2nc3occn3c2-c2ccnc(NCCCNS(=O)(=O)c3ccc(Cl)cc3)n2)ccc1F [60 IV, 4-chloro-N-(3-(4-(6-(4-fluoro-3-methoxyphenyl)imidazo[2,1-b]oxazol-5-yl)pyrimidin-2-ylamino)propyl)benzenesulfonamide]
V600E-B-RAF
  IC50: 11.3 nM

## Nc1cc(-c2nc3sccn3c2-c2ccnc(NCCCNS(=O)(=O)c3ccc(F)cc3)n2)ccc1F [Compound 52III, N-(3-((4-(6-(3-amino-4-fluorophenyl)imidazo[2,1-b]thiazol-5-yl)pyrimidin-2-yl)amino)propyl)-4-fluorobenzenesulfonamide]
C-RAF
  IC50: 5.41 nM
V600E-B-RAF
  IC50: 1.03 nM
B-RAF
  IC50: 2.68 nM

## O=S(=O)(NCCCNc1nccc(-c2c(-c3cccc(O)c3)nc3sccn23)n1)c1ccc(F)cc1 [Compound 31III, 4-Fluoro-N-(3-((4-(6-(3-hydroxylphenyl)imidazo[2,1-b]thiazol-5-yl)pyrimidin-2-yl)amino)propyl)benzenesulfonamide]
C-RAF
  Inhibitory effect against enzymatic activity of C-RAF, in words: excellent inhibitory effects
V600E-B-RAF
  Inhibitory effect against enzymatic activity of V600E-RAF, in words: excellent inhibitory effects
B-RAF
  Inhibitory effect against enzymatic activity of B-RAF, in words: excellent inhibitory effects

## O=S(=O)(NCCNc1nccc(-c2c(-c3ccc(F)c(O)c3)nc3occn23)n1)c1ccc(Cl)cc1 [65 IV, 4-chloro-N-(2-(4-(6-(4-fluoro-3-hydroxyphenyl)imidazo[2,1-b]oxazol-5-yl)pyrimidin-2-ylamino)ethyl)benzenesulfonamide]
V600E-B-RAF
  IC50: 0.37 nM

## O=S(=O)(NCCNc1nccc(-c2c(-c3ccc(F)c(O)c3)nc3sccn23)n1)c1ccc(Cl)cc1 [Compound 43III, 4-chloro-N-(2-(4-(6-(4-fluoro-3-hydroxyphenyl)imidazo[2,1-b]thiazol-5-yl)pyrimidin-2-ylamino)ethyl)benzenesulfonamide]
V600E-B-RAF
  IC50: 6.96 nM

## COc1cc(-c2nc3sccn3c2-c2ccnc(NCCCNS(=O)(=O)c3ccc(Cl)cc3)n2)ccc1F [Compound 38III, 4-chloro-N-(3-(4-(6-(4-fluoro-3-methoxyphenyl)imidazo[2,1-b]thiazol-5-yl)pyrimidin-2-ylamino)propyl)benzenesulfonamide]
V600E-B-RAF
  IC50: 1.89 nM

## COc1ccc(S(=O)(=O)NCCCNc2nccc(-c3c(-c4ccc(F)c(O)c4)nc4sccn34)n2)cc1 [Compound 50III, N-(3-(4-(6-(4-fluoro-3-hydroxyphenyl)imidazo[2,1-b]thiazol-5-yl)pyrimidin-2-ylamino)propyl)-4-methoxybenzenesulfonamide]
V600E-B-RAF
  IC50: 0.05 nM

## O=S(=O)(NCCCNc1nccc(-c2c(-c3ccc(F)c(O)c3)nc3sccn23)n1)c1ccc(F)cc1 [Compound 42III, 4-Fluoro-N-(3-((4-(6-(4-fluoro-3-hydroxyphenyl)imidazo[2,1-b]thiazol-5-yl)pyrimidin-2-yl)amino)propyl)benzenesulfonamide]
V600E-B-RAF
  IC50: 0.36 nM
